Experimental data from ChEMBL document CHEMBL1136837, “Unified QSAR approach to antimicrobials. 4. Multi-target QSAR modeling and comparative multi-distance study of the giant components of antiviral drug-drug complex networks” (Bioorg Med Chem, 2009).
pIC50: −log10 of the molar value.

These compounds were tested on Human papillomavirus (assay: Antiviral activity against Human papillomavirus). Details: not given.
Assay type: functional, organism-based

SMILES | pIC50
Cc1cccc(CNC(=O)c2cccc(-c3ccc(S(=O)(=O)CC(=O)O)cc3)c2)c1 | 7.57
O=C(NCc1cccc2ccccc12)c1cccc(-c2ccc(C(=O)C(F)(F)P(=O)(O)O)cc2)c1 | 6.13
O=C(O)CS(=O)(=O)c1ccc(-c2ccc(C(=O)N3CCCCC3)cc2)cc1 | 5.48
CS(=O)(=O)c1ccc(-c2ccccc2)cc1 | 4.10
O=C(O)CS(=O)(=O)c1ccc(-c2cccc(CC(=O)Nc3ccccc3)c2)cc1 | 6.96
Cc1cccc(CNC(=O)c2cccc(-c3ccc(S(=O)(=O)CC(=O)O)cc3)c2)c1C | 8.04
O=C(O)CS(=O)(=O)c1ccc(Sc2ccccc2)cc1 | 4.10
O=P(O)(O)CS(=O)(=O)c1ccc(-c2ccccc2)cc1 | 4.52
O=C(O)CSc1ccc(-c2ccccc2)cc1 | 4.10
O=C(O)CS(=O)(=O)c1ccc(-c2cccc(C(=O)N3CCOCC3)c2)cc1 | 4.66
C[C@H](NC(=O)c1cccc(-c2ccc(S(=O)(=O)CC(=O)O)cc2)c1)c1ccccc1 | 5.77
O=C(O)CS(=O)(=O)c1ccc2ccccc2c1 | 4.40
O=C(O)CS(=O)(=O)c1ccc(-c2ccc(CC(=O)Nc3ccccc3)cc2)cc1 | 6.80
O=C(O)CS(=O)(=O)c1ccc(-c2ccc(CC(=O)NCc3ccccc3)cc2)cc1 | 6.47
O=C(O)CS(=O)(=O)c1ccc(-c2cccc(CC(=O)NCc3ccccc3)c2)cc1 | 6.52
CC(C)(C(=O)O)S(=O)(=O)c1ccc(-c2ccccc2)cc1 | 4.10
NC(=O)CS(=O)(=O)c1ccc(-c2ccccc2)cc1 | 4.10
O=C(O)CS(=O)(=O)c1ccc(-c2ccc(C(=O)N(Cc3ccccc3)Cc3ccccc3)cc2)cc1 | 5.96
O=S(=O)(O)CS(=O)(=O)c1ccc(-c2ccccc2)cc1 | 4.49
O=C(O)CS(=O)(=O)c1cccc(COc2ccccc2)c1 | 4.10
O=C(O)CS(=O)(=O)c1ccc(-c2ccc(C(=O)Nc3ccccc3)cc2)cc1 | 5.89
O=C(O)CS(=O)(=O)c1ccc(-c2cccc(C(=O)NCc3cccc4ccccc34)c2)cc1 | 8.37
O=S(=O)(Cc1nnn[nH]1)c1ccc(-c2ccccc2)cc1 | 4.20
O=C(O)CS(=O)(=O)c1ccc(NCCc2ccccc2)cc1 | 4.17
C[C@@H](NC(=O)c1cccc(-c2ccc(S(=O)(=O)CC(=O)O)cc2)c1)c1ccccc1 | 7.37
Cc1ccccc1CNC(=O)c1cccc(-c2ccc(S(=O)(=O)CC(=O)O)cc2)c1 | 7.49
CN(C(=O)c1ccc(-c2ccc(S(=O)(=O)CC(=O)O)cc2)cc1)c1ccccc1 | 5.32
O=[N+]([O-])CS(=O)(=O)c1ccc(-c2ccccc2)cc1 | 4.19
O=C(O)CS(=O)(=O)c1ccc(-c2ccc(C(=O)NCc3ccccc3)cc2)cc1 | 6.29

Each compound was assayed on Hepatitis B virus (assay: Antiviral activity against Hepatitis B virus). Details: not given.
Assay type: functional, organism-based

SMILES | pIC50
COc1cccc(Sc2nc(N)nc3c2ncn3CCOCP(=O)(OCC(F)(F)F)OCC(F)(F)F)c1 | 7.40
CCCCOc1ccc(Sc2nc(N)nc3c2ncn3CCOCP(=O)(OCC(F)(F)F)OCC(F)(F)F)cc1 | 6.00
Cc1cn([C@@H]2O[C@H](CO)[C@@H](O)[C@@H]2F)c(=O)[nH]c1=O [5-METHYL-2'-FLUOROARAURACIL] | 6.08
Nc1nc2c(ncn2/C=C2/CC2(F)CO)c(=O)[nH]1 (stereo unspecified) | 4.70
Cc1ccccc1Sc1nc(N)nc2c1ncn2CCOCP(=O)(OCC(F)(F)F)OCC(F)(F)F | 7.10
CC(C)Oc1ccc(Sc2nc(N)nc3c2ncn3CCOCP(=O)(OCC(F)(F)F)OCC(F)(F)F)cc1 | 6.54
Cc1cn([C@H]2C[C@H](OP(=O)(S)OC[C@H]3O[C@@H](n4cnc5c(N)ncnc54)C[C@@H]3O)[C@@H](COP(=O)(S)O[C@H]3C[C@H](n4ccc(N)nc4=O)O[C@@H]3CO)O2)c(=O)[nH]c1=O (stereo partly specified) | 5.68
Nc1nc(O)c2ncn(CCC(CO)CO)c2n1 [PENCICLOVIR] | 3.99
Nc1nc(Sc2ccc(Cl)cc2)c2ncn(CCOCP(=O)(OCC(F)(F)F)OCC(F)(F)F)c2n1 | 6.92
CC(C)c1ccc(Sc2nc(N)nc3c2ncn3CCOCP(=O)(OCC(F)(F)F)OCC(F)(F)F)cc1 | 6.01
CC(C)COc1ccc(Sc2nc(N)nc3c2ncn3CCOCP(=O)(OCC(F)(F)F)OCC(F)(F)F)cc1 | 6.08
Nc1nc(Sc2ccccc2)c2ncn(CCOCP(=O)(OCC(F)(F)F)OCC(F)(F)F)c2n1 | 7.30
Nc1ncnc2c1ccn2[C@H]1C[C@H](OP(=O)(S)OC[C@H]2O[C@@H](n3cnc4c(N)ncnc43)C[C@@H]2O)[C@@H](CO)O1 (stereo partly specified) | 6.52
Nc1nc(Sc2ccc(OC(F)(F)F)cc2)c2ncn(CCOCP(=O)(OCC(F)(F)F)OCC(F)(F)F)c2n1 | 7.22
CCc1ccc(Sc2nc(N)nc3c2ncn3CCOCP(=O)(OCC(F)(F)F)OCC(F)(F)F)cc1 | 6.40
COc1ccccc1Sc1nc(N)nc2c1ncn2CCOCP(=O)(OCC(F)(F)F)OCC(F)(F)F | 7.10
CCCOc1ccc(Sc2nc(N)nc3c2ncn3CCOCP(=O)(OCC(F)(F)F)OCC(F)(F)F)cc1 | 6.06
Nc1ccn([C@@H]2CS[C@H](COP(=O)(O)OP(=O)(O)OP(=O)(O)O)O2)c(=O)n1 [LAMIVUDINE TRIPHOSPHATE] | 8.12
Nc1ncnc2c1ncn2/C=C1/CC1(F)CO (stereo unspecified) | 4.70
COc1ccc(Sc2nc(N)nc3c2ncn3CCOCP(=O)(OCC(F)(F)F)OCC(F)(F)F)cc1 [ALAMIFOVIR] | 7.52
O=C(N/C(C(=O)N1CCCCC1)=C(/Cl)c1ccccc1)c1ccccc1 | 4.67
Nc1ncnc2c1ncn2/C=C1\CC1(F)CO (stereo unspecified) | 4.82
COc1ccccc1/C(Br)=C(\NC(=O)c1ccc([N+](=O)[O-])cc1)C(=O)N1CCCCC1 | 5.62
Nc1nc(Sc2ccc([N+](=O)[O-])cc2)c2ncn(CCOCP(=O)(OCC(F)(F)F)OCC(F)(F)F)c2n1 | 6.28
Cc1ccc(Sc2nc(N)nc3c2ncn3CCOCP(=O)(OCC(F)(F)F)OCC(F)(F)F)cc1 | 7.22
CCOc1ccc(Sc2nc(N)nc3c2ncn3CCOCP(=O)(OCC(F)(F)F)OCC(F)(F)F)cc1 | 6.19
Nc1nc(Sc2ccc3ccccc3c2)c2ncn(CCOCP(=O)(OCC(F)(F)F)OCC(F)(F)F)c2n1 | 7.05

These compounds were tested on Human immunodeficiency virus 1 (assay: Antiviral activity against HIV1). Details: not given.
Assay type: functional, organism-based

SMILES | pIC50
Nc1nc2c(ncn2/C=C2/CC2(F)CO)c(=O)[nH]1 (stereo unspecified) | 4.00
Nc1ncnc2c1ncn2/C=C1/CC1(F)CO (stereo unspecified) | 4.92

Each compound was assayed on Vaccinia virus (assay: Antiviral activity against Vaccinia virus). Details: Orthopoxvirus vaccinia.
Assay type: functional, organism-based, Orthopoxvirus vaccinia

SMILES | pIC50
Cc1cn([C@H]2C=C[C@@H](CO)O2)c(=O)[nH]c1=O [STAVUDINE] | 3.35
Nc1nc(NCC(F)(F)F)c2ncn(CCOCP(=O)(O)O)c2n1 | 4.38
CC(C)(C)C(=O)OCOP(=O)(COCCn1cnc2c(N)ncnc21)OCOC(=O)C(C)(C)C [ADEFOVIR DIPIVOXIL] | 5.29
CN(C)c1nc(N)nc2c1ncn2CCOCP(=O)(O)O | 4.46
CCCCOC(=O)C[C@H](C)NP(=O)(COCCn1cnc2c(N)ncnc21)N[C@@H](C)C(=O)OCCCC (stereo partly specified) | 5.36
CCOC(=O)C(C)NP1(=O)CO[C@@H](Cn2ccc(N)nc2=O)CO1 (stereo partly specified) | 4.82

Each compound was assayed on unidentified influenza virus (assay: Antiviral activity against influenza virus). Details: not given.
Assay type: functional, organism-based

SMILES | pIC50
CC(=O)Nc1nc(C)c(S(=O)(=O)Nc2ccc(C(=O)Nc3ccc4c(c3)N(O)C(=O)/C4=C(\O)c3ccccc3)cc2)s1 | 4.49
COC(=O)/C(O)=C/C(=O)c1ccccc1 | 3.30
CCC(=O)c1c(O)n(O)c2cc(NC(=O)Nc3ccccc3Cl)ccc12 | 4.30
O=C(Nc1ccc2c(c1)N(O)C(=O)/C2=C(\O)c1ccccc1)c1ccc(NS(=O)(=O)c2cccs2)cc1 | 4.32
NC(=O)/C(O)=C/C(=O)C1CCCCC1 | 3.30
O=C(Nc1cccc(C(=O)O)c1)Nc1ccc2c(C(=O)c3ccccc3)c(O)n(O)c2c1 | 5.52
O=C(O)C(=O)CCc1ccccc1 | 3.30
O=C(O)/C=C/C(=O)c1ccccc1 | 3.30
NN1C(=O)Cc2ccccc2C1=O | 3.10
O=C(NO)c1ccccc1 [BENZOHYDROXAMATE] | 3.30
O=C1Cc2ccccc2C(=O)N1O | 3.15
O=c1[nH]c2nccnc2c(=O)n1O | 4.02
CC(C)/C=C1\N=C(CC(C)C)C(=O)N(O)C1=O | 5.26

The compounds below were run on Cowpox virus (assay: Antiviral activity against Cowpox virus). Details: not given.
Assay type: functional, organism-based

SMILES | pIC50
CC(C)OC(=O)C(C)NP(=O)(CO[C@H](C)Cn1cnc2c(N)ncnc21)Oc1ccccc1 (stereo partly specified) | 4.00
Cc1cn([C@H]2C=C[C@@H](CO)O2)c(=O)[nH]c1=O [STAVUDINE] | 3.35
Nc1nc(NCC(F)(F)F)c2ncn(CCOCP(=O)(O)O)c2n1 | 3.57
CC(C)(C)C(=O)OCOP(=O)(COCCn1cnc2c(N)ncnc21)OCOC(=O)C(C)(C)C [ADEFOVIR DIPIVOXIL] | 4.89
COc1c(C)c2c(c(O)c1C/C=C(\C)CCC(=O)O)C(=O)OC2 [MYCOPHENOLIC ACID] | 5.49
CCCCCCCCCCCCCCCCOCCCOP(=O)(O)CO[C@H](CO)Cn1ccc(N)nc1=O [BRINCIDOFOVIR] | 6.22
NC1c2[nH]cnc2N=CN1C[C@@H](CO)OCP(=O)(O)O (stereo partly specified) | 3.48
CN(C)c1nc(N)nc2c1ncn2CCOCP(=O)(O)O | 4.28
CCCCOC(=O)C[C@H](C)NP(=O)(COCCn1cnc2c(N)ncnc21)N[C@@H](C)C(=O)OCCCC (stereo partly specified) | 5.00
CCOC(=O)C(C)NP1(=O)CO[C@@H](Cn2ccc(N)nc2=O)CO1 (stereo partly specified) | 4.59
Nc1nc(NC2CC2)c2ncn(CCOCP(=O)(O)O)c2n1 | 4.55
O=c1[nH]c(=O)n([C@@H]2O[C@H](CO)[C@@H](O)[C@@H]2F)cc1I [FIALURIDINE] | 6.62
CC(C)OC(=O)C(C)NP(=O)(COCCn1cnc2c(NC3CC3)nc(N)nc21)Oc1ccccc1 (stereo unspecified) | 5.59

Each compound was assayed on Hepatitis C virus (assay: Antiviral activity against Hepatitis C virus). Details: Hepatitis C virus.
Assay type: functional, organism-based, Hepacivirus hominis

SMILES | pIC50
Cc1cn([C@H]2C[C@H](OP(=O)(S)OC[C@H]3O[C@@H](n4cnc5c(N)ncnc54)C[C@@H]3O)[C@@H](COP(=O)(S)O[C@H]3C[C@H](n4ccc(N)nc4=O)O[C@@H]3CO)O2)c(=O)[nH]c1=O (stereo partly specified) | 6.00
Nc1ncnc2c1ccn2[C@H]1C[C@H](OP(=O)(S)OC[C@H]2O[C@@H](n3cnc4c(N)ncnc43)C[C@@H]2O)[C@@H](CO)O1 (stereo partly specified) | 6.00
O=C(O)C(=O)CCc1ccccc1 | 4.30

The compounds below were run on Human alphaherpesvirus 3 (assay: Antiviral activity against Varicella zoster virus). Details: not given.
Assay type: functional, organism-based

SMILES | pIC50
Nc1nc2c(ncn2/C=C2/CC2(F)CO)c(=O)[nH]1 (stereo unspecified) | 4.10
Nc1ncnc2c1ncn2/C=C1/CC1(F)CO (stereo unspecified) | 4.85
Nc1ncnc2c1ncn2/C=C1\CC1(F)CO (stereo unspecified) | 4.08
